What was measured:
[1] = test system: BALF proteases (prolyl endopeptidase activity); assay: IQFP protease substrate profiling of BALF from infected and uninfected guinea pigs (Table 1); type: biochemical, guinea pig; conditions: for FI infected / Fold infected: infected guinea pig BALF; for Fold enhancement: infected vs uninfected guinea pig BALF; for FI uninfected / Fold uninfected: uninfected guinea pig BALF
From the text: Methods: The substrate specificity of AF in vitro culture supernatant was profiled with a combinatorial IQFP library in comparison with human serum to identify fungus-specific substrates. An established guinea pig model of IA was used to collect BALF during active disease for in vivo protease substrate profiling.
(§1) Methods: Guinea pig inhalation model comprises neutropenia by cortisone acetate and cyclophosphamide (days −2 and +3), 1.2×10^8 conidia/mL nebulized AF in inhalation chamber, and serum and BALF obtained at predetermined time points; Vallor et al. Antimicrob. Ag. Chemother. 2008, 52.

[2] = test system: Aspergillus fumigatus infected and uninfected guinea pig broncheoaveolar lavage fluid; assay: Screening probes against Aspergillus fumigatus infected and uninfected guinea pig BALF (Table 2); type: biochemical
From the text: as §1
Table 2 Legend. Variable region (Xaa—Yaa—Zaa) of the top 6 peptide probes are all listed in single amino acid code; AF293 and CEA10 are the two strains of Aspergillus fumigatus infected guinea pig BALF samples screened in this study.
N stands for number of guinea pig BALF samples screened against the given peptide probe. Guinea pig infected and uninfected samples with very low background (t=0 hour) and end point values (t=6 hour) (i.e., no greater than 100 units difference between t=0 hour and t=6 hour) were not selected for the statistical calculations.
Mean fold change values is the average of fluorescence fold change calculated for each guinea pig sample screened against respective peptide probe. Fluorescence fold change values are calculated according to the formula:
Fold Change=Fluorescence measured at time t=6 hour/Fluorescence measured at time t=0 hour.
* Fold change values for these peptide probes were calculated at time t=3 hour as the end point value.
SD corresponds to standard deviation calculated for the given probe screened against the respective BALF sample.
Percentage fluorescence efficiency (% FE) is calculated for each probe as follows, % FE=100 * [(Fold changeInfected BALF-Fold changeUninfected BALF)/Fold changeuninfected BALF] Fold change values are all the mean fold change values.
P values are calculated with two tailed student t-test with two sample unequal variance for each peptide probe screened against respective infected and uninfected BALF samples. […]

[3] = strain AF293, t=6 hour vs t=0 hour
[4] = strain AF293 series, t=6 hour vs t=0 hour
[5] = strain CEA10, t=6 hour vs t=0 hour
[6] = strain CEA10 series, t=6 hour vs t=0 hour
[7] = strain AF293, end point t=3 hour
[8] = strain AF293, end point t=3 hour vs t=0 hour
[9] = strain AF293 series, end point t=3 hour vs t=0 hour
[10] = strain CEA10, end point t=3 hour
[11] = strain CEA10, end point t=3 hour vs t=0 hour
[12] = strain CEA10 series, end point t=3 hour vs t=0 hour

Substance: MeOCGly-G-G-P-F/Y-N/Q-G-G-Dap(Dnp)-K-K
- FI infected [1]: 286
- Fold infected [1]: 2.8
- Fold enhancement [1]: 2.15
- FI uninfected [1]: 154
- Fold uninfected [1]: 1.31

Substance: MeOCGly-G-G-P-D/E-P-G-G-Dap(Dnp)-K-K
- FI infected [1]: 349
- Fold infected [1]: 2.3
- Fold enhancement [1]: 2.31
- FI uninfected [1]: 213
- Fold uninfected [1]: 1

Substance: MeOCGly-G-G-P-S/T-P-G-G-Dap(Dnp)-K-K
- FI infected [1]: 665
- Fold infected [1]: 3.63
- Fold enhancement [1]: 2.81
- FI uninfected [1]: 277
- Fold uninfected [1]: 1.29

Substance: MeOCGly-GGPSPGG Dap(DNP)KK-NH2
- % FE (percentage fluorescence efficiency) ([2]; strain AF293, t=6 hour): 309.39%
- Mean Fold change, Infected BALF [2, 3]: 12.49
- Mean Fold Change, Uninfected BALF [2, 4]: 3.05
- % FE (percentage fluorescence efficiency) ([2]; strain CEA10, t=6 hour): 142.55%
- Mean Fold change, Infected BALF [2, 5]: 11.00
- Mean Fold Change, Uninfected BALF [2, 6]: 4.54

Substance: MeOCGly-G-G-P-F/Y-P-G-G-Dap(Dnp)-K-K
- FI infected [1]: 424
- Fold infected [1]: 4.71
- Fold enhancement [1]: 4.07
- FI uninfected [1]: 124
- Fold uninfected [1]: 1.16

Substance: MeOCGly-GGPFPGG Dap(DNP)KK-NH2
- % FE (percentage fluorescence efficiency) ([2]; strain AF293, t=6 hour): 227.09%
- Mean Fold change, Infected BALF [2, 3]: 6.58
- Mean Fold Change, Uninfected BALF [2, 4]: 2.01
- % FE (percentage fluorescence efficiency) ([2]; strain CEA10, t=6 hour): 326.24%
- Mean Fold change, Infected BALF [2, 5]: 12.44
- Mean Fold Change, Uninfected BALF [2, 6]: 2.92

Substance: MeOCGly-G-G-P-K/R-P-G-G-Dap(Dnp)-K-K
- FI infected [1]: 498
- Fold infected [1]: 2.88
- Fold enhancement [1]: 2.37
- FI uninfected [1]: 213
- Fold uninfected [1]: 1.22

Substance: MeOCGly-G-G-P-F/Y-A/V-G-G-Dap(Dnp)-K-K
- FI infected [1]: 493
- Fold infected [1]: 3.06
- Fold enhancement [1]: 2.04
- FI uninfected [1]: 294
- Fold uninfected [1]: 1.5

Substance: MeOCGly-G-G-P-D/E-K/R-G-G-Dap(Dnp)-K-K
- FI infected [1]: 161
- Fold infected [1]: 1.64
- Fold enhancement [1]: 2.02
- FI uninfected [1]: 118
- Fold uninfected [1]: 0.81

Substance: MeOCGly-G-G-P-A/V-N/Q-G-G-Dap(Dnp)-K-K
- FI infected [1]: 325
- Fold infected [1]: 2.18
- Fold enhancement [1]: 2.13
- FI uninfected [1]: 188
- Fold uninfected [1]: 1.02

Substance: MeOCGly-G-G-P-F/Y-K/R-G-G-Dap(Dnp)-K-K
- FI infected [1]: 238
- Fold infected [1]: 2.09
- Fold enhancement [1]: 2.06
- FI uninfected [1]: 151
- Fold uninfected [1]: 1.01

Substance: MeOCGly-G-G-P-N/Q-A/V-G-G-Dap(Dnp)-K-K
- FI infected [1]: 394
- Fold infected [1]: 4.02
- Fold enhancement [1]: 3.33
- FI uninfected [1]: 151
- Fold uninfected [1]: 1.21

Substance: MeOCGly-GGPNPNPGG Dap(DNP)KK-NH2
- % FE (percentage fluorescence efficiency) ([2]; strain AF293, t=6 hour): 355.02%
- Mean Fold change, Infected BALF [2, 3]: 13.47
- Mean Fold Change, Uninfected BALF [2, 4]: 2.96
- % FE (percentage fluorescence efficiency) ([2]; strain CEA10, t=6 hour): 111.20%
- Mean Fold change, Infected BALF [2, 5]: 8.72
- Mean Fold Change, Uninfected BALF [2, 6]: 4.13

Substance: MeOCGly-G-G-P-I/L-P-G-G-Dap(Dnp)-K-K
- FI infected [1]: 474
- Fold infected [1]: 2.74
- Fold enhancement [1]: 2.21
- FI uninfected [1]: 223
- Fold uninfected [1]: 1.24

Substance: MeOCGly-G-G-P-N/Q-P-G-G-Dap(Dnp)-K-K
- FI infected [1]: 598
- Fold infected [1]: 3.93
- Fold enhancement [1]: 2.76
- FI uninfected [1]: 261
- Fold uninfected [1]: 1.43

Substance: MeOCGly-G-G-P-A/V-P-G-G-Dap(Dnp)-K-K
- FI infected [1]: 488
- Fold infected [1]: 2.85
- Fold enhancement [1]: 2.62
- FI uninfected [1]: 234
- Fold uninfected [1]: 1.09

Substance: MeOCGly-GGPYPGG Dap(DNP)KK-NH2
- % FE (percentage fluorescence efficiency) [2, 7]: 203.00%
- Mean Fold change, Infected BALF [2, 8]: 5.42
- Mean Fold Change, Uninfected BALF [2, 9]: 1.79
- % FE (percentage fluorescence efficiency) [2, 10]: 310.44%
- Mean Fold change, Infected BALF [2, 11]: 14.62
- Mean Fold Change, Uninfected BALF [2, 12]: 3.56

Substance: MeOCGly-G-G-P-S/T-A/V-G-G-Dap(Dnp)-K-K
- FI infected [1]: 467
- Fold infected [1]: 4.28
- Fold enhancement [1]: 2.39
- FI uninfected [1]: 176
- Fold uninfected [1]: 1.8

Substance: MeOCGly-G-G-P-S/T-F/Y-G-G-Dap(Dnp)-K-K
- FI infected [1]: 397
- Fold infected [1]: 3.31
- Fold enhancement [1]: 3.08
- FI uninfected [1]: 146
- Fold uninfected [1]: 1.07

Substance: MeOCGly-GGPHPGG Dap(DNP)KK-NH2
- % FE (percentage fluorescence efficiency) ([2]; strain AF293, t=6 hour): 219.69%
- Mean Fold change, Infected BALF [2, 3]: 4.47
- Mean Fold Change, Uninfected BALF [2, 4]: 1.40
- % FE (percentage fluorescence efficiency) ([2]; strain CEA10, t=6 hour): 217.59%
- Mean Fold change, Infected BALF [2, 5]: 10.61
- Mean Fold Change, Uninfected BALF [2, 6]: 3.34

Substance: MeOCGly-GGPNPGG Dap(DNP)KK-NH2
- % FE (percentage fluorescence efficiency) [2, 7]: 274.00%
- Mean Fold change, Infected BALF [2, 8]: 5.68
- Mean Fold Change, Uninfected BALF [2, 9]: 1.52
- % FE (percentage fluorescence efficiency) [2, 10]: 252.39%
- Mean Fold change, Infected BALF [2, 11]: 13.68
- Mean Fold Change, Uninfected BALF [2, 12]: 3.88

— US20120065103A1, “Prolyl Endopeptidase Probes” (priority 2010, published 2012)
